What all share (format): cell-based, human
The subject of experiment [1] is active, cleaved form of caspase 3. The experiment in a line: Western blot for active caspase-3. The note with it: BJ-TERT/LT/ST/RAS^V12 cells. On the procedure: BJ-TERT/LT/ST/RAS^V12 cells were seeded prior to the experiment at 5×10^5 cells in 60 mm dishes. The cells were treated with 5 μg/ml erastin (9 μM) for 2, 4, 6, 8 or 10 hours. One dish was maintained for camptothecin treatment (0.4 μg/ml for 24 h) as a positive control. Cells were lysed after each time point in lysis buffer (50 mM HEPES KOH pH […] NaCl, 2 mM EDTA, 0.5% Triton X-100, 1.5 mM Na3VO4, 50 mM NaF, 10 mM sodium pyrophosphate, 10 mM sodium beta-glycerophosphate and protease inhibitor tablet (Roche)). Protein content was quantified using a Biorad protein assay reagent. Equal amounts of protein were resolved on 16% SDS-polyacrylamide gel. The electrophoresed proteins were transblotted onto a PVDF membrane, blocked with 5% milk and incubated with anti-active caspase-3 polyclonal antibody (BD Pharmingen) at 1:1500 dilution overnight at 4° C. The membrane was then incubated in anti-rabbit-HRP (Santa Cruz Biotechnology) at 1:3000 dilution for 1 hour and developed with an enhanced chemiluminescence mixture (NEN life science, Renaissance). To test for equivalent loading in each lane, blots were stripped, blocked, and probed with an anti-eIF-4E antibody (BD Transduction laboratories) at 1:1000 dilution.

Experiment [2] deals with BJ-TERT/LT/ST/RAS^V12 cells. In words: Nuclear morphology assay. The settings on record: 18 hours. The source says:
Applicants sought to characterize the type of cell death induced by CPT and erastin in tumorigenic BJ-TERT/LT/ST/RAS^V12 cells. […] To determine whether erastin or CPT induces apoptosis in their system, Applicants monitored the nuclear morphology of CPT- and erastin-treated tumorigenic cells using fluorescence microscopy. […] Since nuclear morphological change is required of apoptotic cells, Applicants conclude that cell death induced by erastin is non-apoptotic. […] Additionally, nuclei remained intact in erastin-treated tumor cells (FIG. 9).
200,000 tumorigenic BJ-TERT/LT/ST/RAS^V12 cells were seeded in 2 mL on glass coverslips in each well of a six-well dish, treated with nothing (NT), 9 μM erastin or 1.1 μM camptothecin (CPT) in growth medium for 18 hours while incubating at 37° C. with 5% CO2. Nuclei were stained with 25 μg/mL Hoechst 33342 (Molecular Probes) and viewed using an oil immersion 100× objective on a fluorescence microscope.

Experiment [3] concerns BJ-TERT/LT/ST/RAS^V12 cells. In words: Block of compound-induced cell death by pan-caspase inhibitor. The note with it: 50 μM Boc-Asp(Ome)-fluoromethyl ketone.
The test system of experiment [4] is BJ-TERT/LT/ST/RAS^V12 cells. In words: Annexin V-FITC apoptosis assay. The note with it: untreated 6%. The method, then: BJ-TERT/LT/ST/RAS^V12 cells were seeded at 1×10^6 cells per dish in 100 mm dishes and allowed to grow overnight. Cells were treated with erastin (5 or 10 μg/ml) for 6, 8 or 11 h. A camptothecin-treated (0.4 μg/ml) control was maintained, treated at the time of seeding for 20 hours. After the treatment, cells were harvested with trypsin/EDTA and washed once with fresh medium containing serum and then twice with phosphate buffered saline. Cells were resuspended in 1× binding buffer (BD Pharmingen) at a concentration of 1×10^6 cells/mi. 100 μl (1×10^5 cells) was incubated with 5 μl of Annexin V- FITC (BD Pharmingen) and propidium iodiode (BD Pharmingen) for 15 minutes in the dark at room temperature. Then 400 μl of the 1× binding buffer was added and the cells analyzed by flow cytometry (Becton-Dickinson). Data were acquired and analyzed using Cellquest software.

Experiment [5] relates to BJ-TERT/LT/ST/RAS^V12 cells. In words: DNA fragmentation (DNA ladder).
The next experiment has as its system reactive oxygen species. In words: ROS analysis, flow cytometry using H2DCF-DA. The note with it: engineered cells. The source says: 2′7′ dichlorodihydrofluorescein diacetate (H2DCF-DA) is a non-fluorescent cell permeable compound. The endogenous esterase enzyme inside the cell cleaves the diacetate part, and it can no longer pass out of the cell. Thus it accumulates in the cell. Then H2DCF reacts with ROS to form fluorescent dichlorofluorescene (DCF) which can be measured by flow cytometry in FL1 channel. • 1. Seed cells at 3×10^5 cells per dish in 60 mm dishes and allow to grow overnight. • 2. Treat with the test compound for different period of time (1-10 hr). • 3. Maintain one dish for untreated cells, compound treated cell and positive control dish (hydrogen peroxide treated) for each time point. • 4. Incubate the cells with 10 μM of H2DCF-DA for 10 minutes at 37° C. • 5. For positive control cells, after 5 minutes of H2DCF-DA loading, add 500 μM of hydrogen peroxide and incubate for 5 minutes further. • 6. Harvest the cell by trypsinization. • 7. Wash with cold PBS-twice. • 8. Resuspend the pellet in 100 μl of PBS and transfer into 5 ml FACS tube. • 9. Add 5 μl of propidium iodide (50 μg/ml) and incubate for 10 minutes on ice in dark. • 10. Add 400 μl of PBS and analyze by flow cytometry (Becton-Dickinson). • 11. Acquire the data and analyze using CellQuest software program. • 12. Take only propidium iodiode negative cells (viable cells) for the analysis for DCF staining using the FLI channel, PI in FL3 channel, plot a quadrant chart.
Background: In flow cytometry, cells or beads pass a laser one at a time.

The text below walks through data of patent US20050032124A1, “Identification of genotype-selective agents for treating Huntington's disease” (priority 2003, published 2005).

Regarding `CC[C@@]1(O)C(=O)OCc2c1cc1n(c2=O)Cc2cc3ccccc3nc2-1` [Camptothecin], the “activated caspase 3 (western blot)” value in experiment [1] is given as “harbor activated caspase 3”. Further, the “fragmented nuclei, % of total nuclei” value in experiment [2] (1.1 μM camptothecin) is 10-20%. In addition, in experiment [2] (9 μM erastin or 1.1 μM CPT), the “nuclear morphology (karyorhexis and margination of chromatin)” value is “karyorhexis and margination of chromatin were clearly visible”. In addition, in experiment [3], the “cell death blocked by pan-caspase inhibitor” value is given as “partially blocked”. Besides, the “percentage of cells in the M1 region (Annexin V staining)” value in experiment [4] (camptothecin-treated (1 μM)) was determined as 38%. The “DNA fragmentation (formation of a DNA ladder)” value in experiment [5] is recorded as “induces DNA fragmentation”.
For the compound `COc1cccc2c1C(=O)c1c(O)c3c(c(O)c1C2=O)C[C@@](O)(C(C)=O)C[C@@H]3O[C@H]1C[C@H](N)[C@H](O)[C@H](C)O1` [Daunorubicin], the “formation of reactive oxygen species (ROS)” value (from here on “formation … (ROS)”) with reactive oxygen species was “did not observe the formation of ROS”.
On to `COc1cccc2c1C(=O)c1c(O)c3c(c(O)c1C2=O)C[C@@](O)(C(=O)CO)C[C@@H]3O[C@H]1C[C@H](N)[C@H](O)[C@H](C)O1` [Doxorubicin], for which, in the experiment on reactive oxygen species, the “formation … (ROS)” value is listed as “did not observe the formation of ROS”.
With `CCOc1ccccc1-n1c(C(C)N2CCN(C(=O)COc3ccc(Cl)cc3)CC2)nc2ccccc2c1=O` (stereo not shown) [Erastin], in experiment [4] (erastin-treated (9 μM)), the “percentage of cells in the M1 region (Annexin V staining)” value was 6%.
With `O=C1c2c(O)ccc(O)c2C(=O)c2c(NCCNCCO)ccc(NCCNCCO)c21` [Mitoxantrone], the “formation … (ROS)” value in the experiment on reactive oxygen species is given as “did not observe the formation of ROS”.
